Reference: patent US20150342897A1, “POLYPEPTIDE LOADED POCA NANOPARTICLES FOR ORAL ADMINISTRATION” (Glaxo Group Limited, priority 2012, published 2015)

Experiment: Reduction in blood glucose levels after single i.v. dose
Type: in vivo, C57BL/6 mice
Details: single i.v. dose equivalent to 1 μg/100 μl
Procedure: C57BL/6 mice were given a single i.v. dose of exendin-4 loaded POCA nanoparticles (equivalent to 2 μg peptide/100 μl), non encapsulated (free) exendin-4 peptide (equivalent to 1 μg/100 μl) or saline as a control. In order to monitor blood glucose levels, 2-3 μl blood samples were taken from the peripheral tail vein of each animal prior to dosing and again at 0.5, 1, 2, 3, 4 and 8 hours post dose. Each sample was analysed using a hand held glucose monitor (BAYER […] BREEZE 2TM).

exendin-4 [non encapsulated exendin-4]
reduction in blood glucose levels from baseline (2 hours post dose, FIG. 3): ~30%
blood glucose levels at 8 hours post dose (8 hours post dose): returned to baseline
